Tests used:
HEK-Blue™ Null = format: cell-based, human
human TLR3 = biological target: T1, human TLR3 (Homo sapiens, UniProt O15455); format: cell-based
T1 construct: expressed in transfected cells; host or cells: HEK-Blue hTLR3 (HEK293-derived reporter line)
T1 sequence (O15455 24-904): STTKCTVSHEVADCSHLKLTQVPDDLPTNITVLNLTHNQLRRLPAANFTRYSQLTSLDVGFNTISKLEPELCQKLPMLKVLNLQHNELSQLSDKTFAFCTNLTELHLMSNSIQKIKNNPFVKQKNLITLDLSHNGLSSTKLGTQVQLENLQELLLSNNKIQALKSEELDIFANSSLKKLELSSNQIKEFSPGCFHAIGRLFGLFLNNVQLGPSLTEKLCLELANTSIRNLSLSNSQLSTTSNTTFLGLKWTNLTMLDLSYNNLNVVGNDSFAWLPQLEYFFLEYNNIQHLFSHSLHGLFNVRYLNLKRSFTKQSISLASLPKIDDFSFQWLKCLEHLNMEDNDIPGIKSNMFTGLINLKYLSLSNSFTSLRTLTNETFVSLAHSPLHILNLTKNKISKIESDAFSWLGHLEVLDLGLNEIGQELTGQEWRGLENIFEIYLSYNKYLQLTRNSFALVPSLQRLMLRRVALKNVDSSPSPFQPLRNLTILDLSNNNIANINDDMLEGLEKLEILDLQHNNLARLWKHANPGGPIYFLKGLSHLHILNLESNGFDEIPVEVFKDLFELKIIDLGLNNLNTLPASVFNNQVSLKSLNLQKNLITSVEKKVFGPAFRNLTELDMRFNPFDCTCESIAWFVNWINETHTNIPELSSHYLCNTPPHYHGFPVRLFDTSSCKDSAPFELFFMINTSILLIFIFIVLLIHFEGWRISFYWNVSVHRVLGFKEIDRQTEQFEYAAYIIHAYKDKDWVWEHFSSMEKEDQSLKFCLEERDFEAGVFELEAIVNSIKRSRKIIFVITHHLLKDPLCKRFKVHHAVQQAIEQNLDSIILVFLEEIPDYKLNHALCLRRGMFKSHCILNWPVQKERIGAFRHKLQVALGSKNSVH

J774 murine macrophages = assay: TNF-α induction in mouse macrophage cell line J774; format: cell-based
Description: Induction of TNF-α by macrophages is a hallmark of human TLR8 activation (Forsbach et al., 2008, J. Immunol., 180:3729-38; Ghosh et al., 2007, Int. Immunopharmacol., 7:1111-21; Gorden et al., 2005, J. Immunol., 174:1259-68). […] In the following experiment mouse macrophage cell line, J774, has been transfected by test ribonucleotides as described above for HEK-Blue™ hTLR8 cells (with the exception that 2-10×10^4 cells/well were used) and TNF-α was measured in culture supernatants at 16-20 hours after transfection.

human TLR8 = biological target: T2, human TLR8 (Homo sapiens, UniProt Q9NR97); assay: HEK-Blue hTLR8 NF-kB-inducible SEAP reporter assay (TLR8 activation); format: cell-based
T2 construct: host or cells: HEK293 (HEK-Blue hTLR8) with NF-kB-inducible SEAP reporter
T2 sequence (Q9NR97 27-1041): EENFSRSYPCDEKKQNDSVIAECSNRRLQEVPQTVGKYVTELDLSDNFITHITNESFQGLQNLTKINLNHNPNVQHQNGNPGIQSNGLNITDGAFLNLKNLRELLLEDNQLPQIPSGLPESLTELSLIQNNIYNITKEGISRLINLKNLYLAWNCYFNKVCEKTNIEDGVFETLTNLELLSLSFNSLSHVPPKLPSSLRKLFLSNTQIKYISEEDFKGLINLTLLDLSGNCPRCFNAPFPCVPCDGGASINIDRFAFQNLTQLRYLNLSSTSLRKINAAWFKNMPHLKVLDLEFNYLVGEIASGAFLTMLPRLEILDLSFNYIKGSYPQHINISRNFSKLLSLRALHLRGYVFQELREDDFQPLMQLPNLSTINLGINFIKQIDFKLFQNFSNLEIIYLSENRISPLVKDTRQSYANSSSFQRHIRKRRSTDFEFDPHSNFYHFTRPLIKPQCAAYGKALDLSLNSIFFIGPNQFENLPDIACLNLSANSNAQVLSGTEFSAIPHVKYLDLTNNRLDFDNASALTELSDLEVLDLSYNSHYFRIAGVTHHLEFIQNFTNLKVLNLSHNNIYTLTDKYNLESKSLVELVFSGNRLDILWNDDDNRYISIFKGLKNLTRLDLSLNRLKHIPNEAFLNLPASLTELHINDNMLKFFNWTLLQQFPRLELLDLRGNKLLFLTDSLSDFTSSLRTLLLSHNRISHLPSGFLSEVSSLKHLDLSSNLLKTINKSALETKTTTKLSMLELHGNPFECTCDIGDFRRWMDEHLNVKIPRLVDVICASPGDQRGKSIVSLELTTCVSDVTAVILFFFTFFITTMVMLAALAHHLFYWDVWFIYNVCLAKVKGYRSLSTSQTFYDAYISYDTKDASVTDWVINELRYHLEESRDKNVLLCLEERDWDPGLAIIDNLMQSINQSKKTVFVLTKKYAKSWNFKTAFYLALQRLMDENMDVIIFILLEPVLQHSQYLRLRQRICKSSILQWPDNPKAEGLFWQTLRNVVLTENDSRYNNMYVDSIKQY

[1] = system: primary human lymphocytes; format: cell-based
human TLR9 = biological target: T3, human TLR9 (Homo sapiens, UniProt Q9NR96); format: cell-based
T3 construct: expressed in transfected cells; host or cells: HEK-Blue hTLR9 (HEK293-derived reporter line)
T3 sequence (Q9NR96 26-1032): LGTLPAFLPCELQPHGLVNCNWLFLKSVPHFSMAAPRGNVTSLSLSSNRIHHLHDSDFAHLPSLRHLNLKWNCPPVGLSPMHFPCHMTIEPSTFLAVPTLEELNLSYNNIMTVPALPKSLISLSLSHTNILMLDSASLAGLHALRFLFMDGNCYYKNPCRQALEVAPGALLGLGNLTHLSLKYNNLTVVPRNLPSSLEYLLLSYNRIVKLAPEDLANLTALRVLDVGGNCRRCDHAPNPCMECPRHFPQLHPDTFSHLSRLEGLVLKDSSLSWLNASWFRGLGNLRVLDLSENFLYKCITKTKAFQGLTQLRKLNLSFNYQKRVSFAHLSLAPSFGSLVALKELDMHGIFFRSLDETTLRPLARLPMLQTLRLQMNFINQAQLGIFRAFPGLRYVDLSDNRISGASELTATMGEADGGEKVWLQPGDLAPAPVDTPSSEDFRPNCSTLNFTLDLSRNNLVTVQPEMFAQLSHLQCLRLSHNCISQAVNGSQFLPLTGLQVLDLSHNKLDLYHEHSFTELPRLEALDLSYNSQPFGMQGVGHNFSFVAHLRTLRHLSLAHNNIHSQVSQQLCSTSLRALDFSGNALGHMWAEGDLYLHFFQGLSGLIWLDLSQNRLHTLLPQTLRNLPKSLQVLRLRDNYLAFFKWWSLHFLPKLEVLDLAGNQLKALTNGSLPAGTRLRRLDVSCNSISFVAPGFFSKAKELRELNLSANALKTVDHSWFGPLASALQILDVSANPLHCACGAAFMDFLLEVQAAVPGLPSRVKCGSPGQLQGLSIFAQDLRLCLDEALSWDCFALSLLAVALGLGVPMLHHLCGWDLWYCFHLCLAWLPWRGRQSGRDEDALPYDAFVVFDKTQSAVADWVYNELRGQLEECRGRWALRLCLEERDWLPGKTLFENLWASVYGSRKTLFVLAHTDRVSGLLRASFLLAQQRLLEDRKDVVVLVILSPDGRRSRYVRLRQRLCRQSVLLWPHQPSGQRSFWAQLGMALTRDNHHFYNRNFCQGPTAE

Substance: 5′-AAGAAGAAAUAGAUUUAUUUUUAAAUUUUUGUGU-3′ [SL-0005]
- activation of SEAP expression (HEK-Blue™ Null): No activation of SEAP expression
- activation of SEAP expression (human TLR3): No activation of SEAP expression
- TNF-α induction, described in words (J774 murine macrophages): strongly induced TNF-α expression, to the level seen when R-0006 was used
- TLR8 activation (fold increase of SEAP induction over the background), described in words (human TLR8): stronger levels of TLR8 activation
- concentration at which TLR8 activation was detected starting (human TLR8): 40 nM
- 11-12(p40) induction [1]: significant levels
- IFNγ induction [1]: significant levels
- IL-4 induction (Th2-type cytokine) [1]: insignificant
- IL-5 induction (Th2-type cytokine) [1]: insignificant
- IL-6 induction [1]: significant levels
- IL-10 induction [1]: significant levels
- IL-23 induction [1]: significant levels
- TNFα induction [1]: significant levels
- activation of SEAP expression (human TLR9): No activation of SEAP expression

— US20120177701A1, “COMPOSITIONS COMPRISING IMMUNOSTIMULATORY NUCLEIC ACIDS AND RELATED METHODS” (priority 2010, published 2012)
